We go through three compounds from patent US4598080A, “Certain-2-methyl-6-{4-[1-phenyl-1-hydroxypropyl]-phenoxymethyl}pyridines which inhibit microsonal monoxygenase systems in liver” (Richter Gedeon Vegyeszeti Gyar Rt, priority 1982, dated 1986).

One data set relates to hexobarbital oxidase. As to the kind of experiment: hexobarbital narcosis period (change of hexobarbital oxidase activity in vivo). The arrangement: species or system rat. The conditions noted are these: mean ± S.E.; for Hexobarbital Narcosis period in % of the control, 1 hour: 1 hour after administration; for Hexobarbital Narcosis period in % of the control (24 hours): 24 hours after administration. The procedure:
The enzyme inhibiting activity of the new compounds was tested in vivo, by measuring the change of hexobarbital oxidase activity. Female Hann.-Wistarrats, each weighing 50 to 60 g. were treated orally with a single 40 mg./kg. dose of the test compound. 1 and 24 hours after the administration of the active ingredient, the animals were narcotized with a 60 mg./kg. i.v. dosage of hexobarbital sodium, and the time elapsed until complete wakening was measured (Noordhoek, J.: Eur. J. Pharmacol., 3, 242 (1968)). The data were recorded, and the mean values, the standard errors, as well as the percentage increase with respect to the controls were calculated for each group. […] The hexobarbital concentration of the plasm, measured on the instant wakening, was the same for both the treated and the control animals, and thus the increase of narcosis period was not due to a certain central nervous interaction (Jori, A. et al.: Biochem. Pharmacol., 19, 2687 (1970)).

For another data set, the system named is aminopyrine demethylase. Put plainly: aminopyrine demethylase activity of liver after oral treatment. It is filed as in vivo, rat. The conditions noted are these: female H.Wistar rats, single 40 mg./kg. oral dose, liver taken two hours after treatment, results in % of the control (control = 260.7 ± 11.2 nmoles/g/min), mean ± S.E., the values are: activity. The procedure:
The enzyme inhibiting activity of the compounds of the formula (I) was further tested by determining the activity of the polysubstrate monooxygense enzyme system of the liver after treatment with the placebo and the compounds according to the invention, respectively. Female H.Wistar rats weighing 50 to 60 g. each were administered a single 40 mg./kg. dose of the test compounds, orally. Two hours after treatment the animals were decapitated and the livers were eliminated. After rinsing with a physiological saline solution at 0° C., drying and weighing, the livers were homogenized in a 0.1 molar Tris-HCl buffer (pH=7.2), containing 1.15% of potassium chloride at 0° C., centrifuged at 9000 g for 20 minutes, and the supernatant (postmitochondrial fraction) was used for further investigations. The microsomal fraction was prepared following the method developed by Cinti D. L. et al.: Biochem. Pharmacol., 21, 3249 (1972). The activity of aniline hydroxylase was determined from the velocity of p-amino-phenol formation according to Chabra R. S. et al.: Toxicol. Appl. Pharmacol., 22, 50 ( 1972). The activity of the aminopyrine demethylase was measured from the amount of the formaldehyde formed, according to Gourlay G. K. et al.: Biochem. Pharmacol., 27, 965 (1978). The control groups were treated with a placebo.

A further data set in a line: acute toxicity. Particulars: rat, in vivo, po; H-Wistar rats of both sexes, single 500 mg./kg. p.o., observed for 14 days; read-out: Perished animals (%). As to the method:
The acute toxicity of the compounds of the formula (I) was tested on H-Wistar rats of both sexes, weighing 160 to 180 g. each. The compounds were administered in a single 500 mg./kg. dose, orally.

The conditions of data set [1]: from H. Ippen: Index Pharmacorum (1970); cited from earlier work.
Setting [2] is: female Hann.-Wistar rats, single 40 mg./kg. oral dose, hexobarbital sodium 60 mg./kg. i.v.
Where [3] appears, read: reference compound, dose 100 mg/kg.

Structures are written as SMILES.

Consider `CCC(O)(c1ccc(Cl)cc1)c1ccc(OCc2cccc(C)n2)cc1` (centres unmarked) [A, 2-methyl-6-{4-[1-(4-chlorophenyl)-1-hydroxypropyl]-phenoxymethyl}-pyridine], for which, in the data set with hexobarbital oxidase (setting [2]), the “Hexobarbital Narcosis period in % of the control, 1 hour” value is 259 ± 11.4 % of the control and the “Hexobarbital Narcosis period in % of the control (24 hours)” value was 155 ± 9.6 % of the control. For the same compound, the Aminopyrine demethylase in the data set on aminopyrine demethylase was found to be 55 ± 4.4%. Besides, the mortality at 336 h in the data set “acute toxicity” stood at 0%.
In the same order, the values of `CCC(O)(c1ccc(OCc2cccc(C)n2)cc1)c1cc(C)ccc1C` (centres unmarked) [B, 2-methyl-6-{4-[1-(2,5-dimethylphenyl)-1-hydroxypropyl]-phenoxymethyl}-pyridine] are 135 ± 6.7 % of the control, 174 ± 7.2 % of the control, 63 ± 4.4% and 0%.
Consider `CCCC(C(=O)OCCN(CC)CC)(c1ccccc1)c1ccccc1` [Proadiphene, (2-diethylaminoethyl)-α,α-diphenyl valerate, reference compound], for which, in the data set on hexobarbital oxidase (setting [3]), the “Hexobarbital Narcosis period in % of the control, 1 hour” value is on record as 241 ± 9.6 % of the control and the “Hexobarbital Narcosis period in % of the control (24 hours)” value is given as 44 ± 5.7 % of the control. Also, the anticonvulsive side effect result in data set [1] was “exerted an anticonvulsive side effect”.
